Reference: patent US20210093626A1 (priority 2018, published 2021)

Assays:
[1] = system: N2a, ScN2a, GT1, ScGT1 cells
[2] = system: PrP^Sc in GT1 cells chronically infected with RML prion (ScGT1); type: cell-based, mouse; details: drug 20 μM, 4 days, vs vehicle control, densitometry normalized to β-actin
[3] = system: PrP^Sc in N2a cells chronically infected with RML prion strain (ScN2a); type: cell-based, mouse
[4] = system: PrP^Sc in GT1 cells chronically infected with 22L prion strain (ScGT1 22L); type: cell-based, mouse; details: ScGT1 cells infected with 22L prion strain, drug 20 μM, 4 days, vs vehicle control

Compound | citotoxicity assessment [1] | reduction of PrP^Sc accumulation/levels [2] | reduction in PrP^Sc levels ([3]; RML-infected ScN2a cells, drug 20 μM, 4 days, vs vehicle control) [%] | PrP^Sc reduction with compound dissolved in different drug vehicles ([3]; ScN2a cells, vehicles PBS, H2O, NaCl and DMSO) | reduction of PrP^Sc levels [4] [%]
Nc1c(C(=O)c2c[nH]c3ccccc23)cnn1-c1ccccc1 [Compound 3, (5-Amino-1-phenyl-1H-pyrazol-4-yl)-(1H-indol-3-yl)-methanone] | discarded | – | – | – | –
Nc1c(C(=O)C2CCNCC2)cnn1-c1ccc(OC(F)(F)F)cc1 [Compound 5, [5-Amino-1-(4-trifluoromethoxy-phenyl)-1H-pyrazol-4-yl]-piperidin-4-yl-methanone] | – | about 60% | 60 | able to reduce PrP^Sc in all drug vehicles tested | 35
Nc1c(C(=O)c2ccc[nH]2)cnn1-c1ccc(F)cc1 [Compound G] | – | about 50% | – | – | –
